Test [1] deals with Escherichia coli. Put plainly: Inhibition of Escherichia coli DXR using DOXP as substrate assessed as conversion of NADPH to NADP at 500 uM preincubated for 5 mins.
The test system of test [2] is Escherichia coli. As to the kind of experiment: Binding affinity to Escherichia coli DXR at 20 uM by STD-NMR analysis.
In test [3] the test system is Escherichia coli. As to the kind of experiment: Inhibition of Escherichia coli DXR using DOXP as substrate assessed as conversion of NADPH to NADP at 250 uM preincubated for 5 mins measured after 10 mins relative to control.
In test [4] the test system is Escherichia coli. Put plainly: Activation of Escherichia coli DXR using DOXP as substrate assessed as conversion of NADPH to NADP at 250 uM preincubated for 5 mins.
The test system of test [5] is Escherichia coli. As to the kind of experiment: Inhibition of Escherichia coli DXR using DOXP as substrate assessed as conversion of NADPH to NADP at 250 uM preincubated for 5 mins relative to control.
Test [6] has as its system Plasmodium falciparum. As to the kind of experiment: Activation of Plasmodium falciparum DXR using DOXP as substrate assessed as conversion of NADPH to NADP at 250 uM preincubated for 5 mins relative to control.
The subject of test [7] is Plasmodium falciparum. As to the kind of experiment: Inhibition of Plasmodium falciparum DXR using DOXP as substrate assessed as conversion of NADPH to NADP at 250 uM preincubated for 5 mins relative to control.
Test [8] deals with Escherichia coli. As to the kind of experiment: Activation of Escherichia coli DXR using DOXP as substrate assessed as conversion of NADPH to NADP at 500 uM preincubated for 5 mins.

One may read the inhibition as the change of the read-out against control, counted positive when it falls.

SMILES strings stand for the structures. The source made the active and inactive calls. The calls are words filed in the database; no cut-off is given here.

With `CCOP(=O)(CCC(=O)NCc1ccco1)OCC`, in the test on Escherichia coli [1], the inhibition is 0.2%. For the same compound, in the test with Escherichia coli [2], the result was Active.

Take `O=C(CCCP(=O)(O)O)Nc1cccc(O)c1`: the inhibition in the test with Escherichia coli [3] was determined as 0.7%.

In the case of `COc1cccc(NC(=O)CCP(=O)(O)O)c1`, the outcome in the test on Escherichia coli [4] and in the test with Plasmodium falciparum [6] was Active. Besides, in the test on Escherichia coli [5], the inhibition was 8.7%.

As to `O=C(CCP(=O)(O)O)Nc1cccc(O)c1`, the inhibition worked out at 23.7% in the test with Escherichia coli [5], 1.1% with Plasmodium falciparum [7] and 49.2% with Escherichia coli [3].

Take `CCOP(=O)(CC(=O)Nc1cccc(C#N)c1)OCC`: the inhibition with Escherichia coli [5] was 21.9%; in the test with Plasmodium falciparum [7] it was 4.8%; with Escherichia coli [3], 11.9%.

`CCOP(=O)(CC(=O)Nc1cccc(OC)c1)OCC`: the inhibition in the test with Escherichia coli [5] came out at 11%. For the same compound, in the test on Plasmodium falciparum [6], the outcome was Active.

On to `O=C(CCCCP(=O)(O)O)Nc1cccc(O)c1`, for which the result with Escherichia coli [4] was Active. Further, the outcome in the test on Escherichia coli [2] was inactive.

Consider `CCOP(=O)(CCC(=O)Nc1ccon1)OCC`, for which, in the test with Escherichia coli [1], the inhibition was determined as 0%. In the test on Escherichia coli [2], the outcome was Active.

As to `CCOP(=O)(CCCC(=O)Nc1cccc(O)c1)OCC`, in the test with Escherichia coli [3], the inhibition worked out at 0.8%.

As for `CCOP(=O)(CC(=O)Nc1cccc(O)c1)OCC`, the inhibition in the test on Escherichia coli [5] worked out at 44.6%; in the test on Plasmodium falciparum [7], 12%; in the test on Escherichia coli [3] it was 24.4%.

With `O=C(CP(=O)(O)O)Nc1nccs1`, the inhibition with Escherichia coli [1] came out at 7.4%. Moreover, in the test on Escherichia coli [2], the result was Active.

For the compound `CCOP(=O)(CCC(=O)Nc1ccccn1)OCC`, the result with Escherichia coli [8] and with Escherichia coli [2] was Active.

Consider `CCOP(=O)(CC(=O)Nc1ccon1)OCC`, for which, in the test on Escherichia coli [1], the inhibition came out at 11.7%. Also, the result in the test with Escherichia coli [2] was Active.

With `O=C(CP(=O)(O)O)Nc1ccon1`, the inhibition in the test on Escherichia coli [1] was 12.2%. For the same compound, the outcome in the test with Escherichia coli [2] was Active.

In the case of `N#Cc1cccc(NC(=O)CCCP(=O)(O)O)c1`, the outcome in the test with Escherichia coli [2] was inactive.

For the compound `CCOP(=O)(CCC(=O)Nc1nc(C)c(C(C)=O)s1)OCC`, in the test with Escherichia coli [1], the inhibition came out at 0.3%. Moreover, the result in the test with Escherichia coli [2] was Active.

Regarding `CCOP(=O)(CC(=O)Nc1nccs1)OCC`, in the test on Escherichia coli [1], the inhibition was 28.9%. Also, in the test with Escherichia coli [2], the result was Active.

For the compound `CC(=O)c1sc(NC(=O)CCP(=O)(O)O)nc1C`, in the test with Escherichia coli [1], the inhibition turned out to be 0%. In the test with Escherichia coli [2], the result was Active.

As for `CCOP(=O)(CCCC(=O)Nc1cccc(Br)c1)OCC`, in the test with Escherichia coli [4], the outcome was Active.

For `CCOP(=O)(CCC(=O)Nc1cccc(CO)c1)OCC`, the figures for the inhibition in the test on Escherichia coli [5] and with Escherichia coli [3] were 17.1% and 17.9%, respectively. Further, the outcome with Plasmodium falciparum [6] was Active.

As for `CCOP(=O)(CC(=O)NCc1ccco1)OCC`, the inhibition with Escherichia coli [1] was found to be 67.7%. Further, the outcome in the test on Escherichia coli [2] was Active.

In the case of `CCOP(=O)(CCC(=O)Nc1cccc(O)c1)OCC`, the inhibition stood at 23.1% with Escherichia coli [5] and 33.5% with Escherichia coli [3]. Besides, the outcome with Plasmodium falciparum [6] was Active.

Regarding `O=C(CCP(=O)(O)O)Nc1cccc(CO)c1`, the inhibition in the test on Escherichia coli [5] is 16%; in the test on Plasmodium falciparum [7], 10.9%; with Escherichia coli [3], 26.8%.

Turning to `CCOP(=O)(CC(=O)Nc1cccc(Br)c1)OCC`, the inhibition was found to be 16.3% in the test on Escherichia coli [5] and 21.4% in the test on Escherichia coli [3]. Besides, in the test on Plasmodium falciparum [6], the outcome was Active.

As for `O=C(CCP(=O)(O)O)Nc1ccccn1`, the inhibition in the test on Escherichia coli [1] is 0%. In addition, the outcome in the test with Escherichia coli [2] was Active.

With `CC(=O)c1sc(NC(=O)CP(=O)(O)O)nc1C`, the inhibition in the test with Escherichia coli [1] worked out at 16.6%. Moreover, in the test on Escherichia coli [2], the result was Active.

For `O=C(CP(=O)(O)O)Nc1cccc(Br)c1`, the values for the inhibition with Escherichia coli [5], in the test on Plasmodium falciparum [7] and in the test with Escherichia coli [3] were 22.3%, 42% and 26.8%, respectively.

On to `CCOP(=O)(CC(=O)Nc1cccc(CO)c1)OCC`, for which the inhibition with Escherichia coli [5] came out at 40.4%; with Plasmodium falciparum [7], 40.7%.

With `O=C(CP(=O)(O)O)Nc1ccccn1`, the outcome in the test on Escherichia coli [8] and in the test on Escherichia coli [2] was Active.

For the compound `CCOP(=O)(CCC(=O)Nc1cccc(OC)c1)OCC`, the inhibition was determined as 23.3% with Escherichia coli [5] and 14.1% with Escherichia coli [3]. In addition, the outcome with Plasmodium falciparum [6] was Active.

As to `O=C(CP(=O)(O)O)NCc1ccco1`, the inhibition in the test with Escherichia coli [1] was determined as 30%. For the same compound, in the test on Escherichia coli [2], the outcome was Active.

As to `CCOP(=O)(CC(=O)Nc1ccccn1)OCC`, the inhibition in the test with Escherichia coli [1] was found to be 58.5%. For the same compound, the outcome with Escherichia coli [2] was Active.

`COc1cccc(NC(=O)CP(=O)(O)O)c1`: the inhibition in the test with Escherichia coli [5] is 31.9%; in the test with Plasmodium falciparum [7], 40.8%; with Escherichia coli [3], 17.8%.

As to `CCOP(=O)(CCCCC(=O)Nc1cccc(O)c1)OCC`, the result with Escherichia coli [4] was Active.

`O=C(CCP(=O)(O)O)NCc1ccco1`: in the test on Escherichia coli [1], the inhibition is 0.3%. The result in the test on Escherichia coli [2] was Active.

Take `O=C(CCCCP(=O)(O)O)Nc1cccc(Br)c1`: the outcome in the test with Escherichia coli [4] was Active. Besides, in the test on Escherichia coli [2], the result was inactive.

With `N#Cc1cccc(NC(=O)CP(=O)(O)O)c1`, the figures for the inhibition in the test on Escherichia coli [5] and in the test on Escherichia coli [3] were 8.2% and 20%, respectively. In addition, in the test on Plasmodium falciparum [6], the result was Active.

For the compound `O=C(CP(=O)(O)O)Nc1cccc(O)c1`, the inhibition in the test on Escherichia coli [5] came to 34.4%; in the test on Plasmodium falciparum [7] it was 45.2%; in the test with Escherichia coli [3], 43.9%.

For the compound `CCOP(=O)(CCC(=O)Nc1nccs1)OCC`, the inhibition with Escherichia coli [1] stood at 0.1%. Also, the result with Escherichia coli [2] was Active.

As to `CCOP(=O)(CC(=O)Nc1nc(C)c(C(C)=O)s1)OCC`, the inhibition in the test with Escherichia coli [1] was 21.6%. Moreover, the outcome in the test with Escherichia coli [2] was Active.

Turning to `COc1cccc(NC(=O)CCCCP(=O)(O)O)c1`, in the test on Escherichia coli [4], the outcome was Active.

As for `CCOP(=O)(CCCCC(=O)Nc1cccc(OC)c1)OCC`, in the test with Escherichia coli [4], the outcome was Active.

For the compound `O=C(CCP(=O)(O)O)Nc1ccon1`, the inhibition with Escherichia coli [1] came out at 0.2%. Also, the result in the test with Escherichia coli [2] was Active.

`O=C(CCP(=O)(O)O)Nc1nccs1`: the inhibition in the test with Escherichia coli [1] was determined as 0.2%. Also, the result with Escherichia coli [2] was Active.

Values taken from ChEMBL document CHEMBL2396640, “Exploring DOXP-reductoisomerase binding limits using phosphonated N-aryl and N-heteroarylcarboxamides as DXR inhibitors” (Bioorg Med Chem, 2013).
